Source: publication PMC3480424, “The Metagenome-Derived Enzymes LipS and LipT Increase the Diversity of Known Lipases” (PLoS ONE, 2012)

Tests used:
LipT = target: T1, LipT (uncultured bacterium, UniProt K7QE48); assay: spectrophotometric 4-nitrophenol release at […] nm; format: biochemical; settings: 75°C, 0.1 M potassium phosphate pH 8.0
T1 construct: full ORF of 331 residues incl. predicted signal peptide (cleavage Ala21/Val22), C-terminal His6 (pET21a), E. coli BL21(DE3), Ni-NTA; about 36 kDa monomer, multimer (at least dimer)

LipS = target: T2, LipS (Symbiobacterium thermophilum, UniProt Q67MR3); assay: pNP-decanoate hydrolysis, spectrophotometric at […] nm; format: biochemical; settings: pNP-decanoate as substrate, 5 min preincubation, 70°C, 10 min
T2 construct: gene STH2045; full-length, 280 residues, C-terminal His6 (pET21a), E. coli BL21(DE3), Ni-NTA; dimer by SEC

[1] = system: T3, LipS-WT (uncultured bacterium); assay: X-ray crystal structure, […] Å; format: binding; settings: active site next to S126 and H257, contact to D187; spermidine was added as crystallisation additive, residual density interpreted as spermidine; PDB code assigned by order of listing
T3 construct: crystallization construct LipS-WT with native N-terminus (disordered to about residue 35); space group P4, 4 molecules per asymmetric unit; dimer

[2] = target: LipS with His6-tag at the C-terminus (LipS-H6) (metagenome-derived (100% identity to Symbiobacterium thermophilum)); assay: SEC; size exclusion chromatography during purification of LipS for crystallization; conditions not told (ref. 67)
[3] = target: LipT (metagenome-derived (97% identity to Thermus scotoductus)); assay: SDS-PAGE after incomplete heat denaturation; 15% SDS-PAGE of purified LipT after 5 min at 95°C, Coomassie staining
[4] = target: wild-type LipS (LipS-WT) (metagenome-derived (100% identity to Symbiobacterium thermophilum)); assay: SEC; size exclusion chromatography during purification of LipS for crystallization; conditions not told (ref. 67)

T2 sequence (Q67MR3 entry or part of it): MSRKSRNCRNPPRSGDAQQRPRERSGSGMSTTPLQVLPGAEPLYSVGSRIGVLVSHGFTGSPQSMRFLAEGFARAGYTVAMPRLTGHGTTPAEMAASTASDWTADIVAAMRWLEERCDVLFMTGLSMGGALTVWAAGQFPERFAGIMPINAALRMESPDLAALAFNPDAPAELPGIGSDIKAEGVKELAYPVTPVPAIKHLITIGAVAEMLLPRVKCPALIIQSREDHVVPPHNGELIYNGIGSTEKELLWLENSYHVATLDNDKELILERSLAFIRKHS
T1 sequence (K7QE48 1-328 limits assumed): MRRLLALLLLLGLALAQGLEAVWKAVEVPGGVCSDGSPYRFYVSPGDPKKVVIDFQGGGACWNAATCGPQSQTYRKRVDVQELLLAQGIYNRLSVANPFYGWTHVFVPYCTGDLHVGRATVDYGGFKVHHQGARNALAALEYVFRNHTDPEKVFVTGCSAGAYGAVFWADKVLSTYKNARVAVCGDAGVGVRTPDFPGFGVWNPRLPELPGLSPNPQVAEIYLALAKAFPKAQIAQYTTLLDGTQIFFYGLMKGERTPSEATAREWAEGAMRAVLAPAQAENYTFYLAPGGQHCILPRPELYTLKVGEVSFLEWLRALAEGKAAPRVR

**Q.** `CCCCCCCCCC(=O)Oc1ccc([N+](=O)[O-])cc1` [4-nitrophenol-decanoate (C10)] was tested. Which “Km (mol l^-1)” value (LipT) did it give?
**A.** 1.1 • 10^−3 mol l^−1

**Q.** With `NCCCCNCCCN` [spermidine] as the compound, how does the “inhibition at 3 and 5 mM” value (LipS) read?
**A.** shown to inhibit the activity of LipS with its substrate pNP-decanoate

**Q.** What about the “X-ray crystal structure, 1.99 Å” value [1] of the same compound?
**A.** Spermidine was used as an additive to improve crystal quality

**Q.** Which stoichiometry N [2] does the source give for “LipS with His6-tag at the C-terminus (LipS-H6) (enzyme)” here?
**A.** 2

**Q.** Which stoichiometry N [3] does the source give for LipT (enzyme) here?
**A.** > 2

**Q.** How did the stoichiometry N [4] turn out when wild-type LipS (LipS-WT) (enzyme) was run?
**A.** 2
